Laboratory results as given in patent publication US10842892B2, “Methods and apparatus for synthesizing imaging agents, and intermediates thereof” (Lantheus Medical Imaging, Inc., priority 2010, dated 2020).
Where “and” joins values, the source holds several entries; their conditions need not be identical. Equal values may be shown once. Read-outs that look alike come from different tables or passages of the source.

How the values were obtained:
control and MI rabbits = assay: cardiovascular evaluation (ECG, arterial pressure) after injection in control and MI rabbits; assay type: in vivo, rabbit
Method: PET images and cardiovascular parameters were evaluated in both normal and MI rabbits. Prior to imaging, the rabbit was anesthetized with ketamine (25 mg/Kg, im) and xylazine (5 mg/Kg, im) and the marginal ear vein was catheterized for imaging agent 1 injection. The right femoral artery was isolated and canulated with a Millar catheter (SPC340, Millar Instruments, Houston, Tex.) for arterial pressure measurement. Then the animal was positioned in a microPET camera (Focus220, CTI Molecular Imaging, Inc. Knoxville, Tenn.) for cardiac imaging. The Millar catheter was connected to a computer driven data acquisition system (MP35, BIOPAC Systems, Goleta, Calif.) for recording of mean arterial pressure (MAP), and systolic and diastolic arterial pressure (SAP and DAP). In addition, electrocardiogram (ECG) was also recorded with 3 non-invasive limb leads in lead II configuration using the BIOPAC system. Heart rate (HR) and QT interval were derived from ECG recording. After a stabilization period, cardiovascular parameters: MAP, SBP, DBP and ECG, were recorded 5 minutes before imaging agent 1 intravenous injection (˜1.5 mCi) and the recording continued for additional 20 minutes post-injection. The rabbit was imaged for 30 minutes.
Data are expressed as mean±SD and unpaired student t-test (assuming unequal variances) was used for comparison of baseline values between control and MI rabbits. p<0.05 was considered statistically significant. At each timepoint (before and 1-, 5-, 10- and 20-minute after imaging agent 1 injection), MAP, SAP and DAP measured intraarterially averaged every 10-second, and HR and QTc interval derived from ECG recording averaged every 12 heart beats. The QT interval was manually defined by one investigator and QTc was generated from QT corrected by RR interval using Fridericia method (QTc=QT/RR1/3).9

myocardial blood flow [1] = conditions: humans, assumed, equivalent to pre-clinical studies; cited from earlier work
heart wall = conditions: primate-derived estimates; cited from earlier work
[2] = tested on: coronary artery disease (CAD); assay: Phase 2 diagnostic performance for coronary artery disease, PET versus SPECT; assay type: in vivo, human
Excerpt: 143 patients (Pts) from 21 centers, presenting with a broad spectrum of CAD pre-test likelihoods, underwent rest-stress Tc-99m labeled SPECT MPI and imaging agent 1 PET MPI. […] Their mean age was 64.5 (range: 36-85) years and 68 were males. % narrowing in each coronary artery was quantified blindly. 52/84 Pts had significant CAD (≥50% luminal diameter narrowing) and 32/84 had insignificant CAD/normal coronary arteries. In each patient, 17 myocardial segments were visually scored on rest and stress images by 3 independent, blinded readers and majority rule interpretation was determined in each patient for both PET and SPECT studies. Diagnostic performance of PET was compared to that of SPECT using ROC analysis.

myocardial blood flow [3] = conditions: humans, assumed, equivalent to prior studies; cited from earlier work
healthy volunteers = assay: single-dose dosimetry and biodistribution trial in healthy subjects (MIRD); assay type: in vivo, human
Method: The following provides results obtained from a study regarding a single-dose dosimetry, biodistribution, and safety trial of imaging agent 1 in healthy subjects. Whole body PET image data for the 12 healthy volunteers were obtained using imaging agent 1 at approximately 10 minutes, 30 minutes, 50 minutes, 2 hours, 2.5 hours, 3.83 hours, and 4.5 hours post injection. Image data were attenuation corrected at the imaging site, and were quantified based on the Medical Internal Radiation Dose (MIRD) 16 methodology by Dosimetry Analysis Laboratory, CDE Dosimetry Services (CDE) to determine kinetic data in all organs showing significant uptake of activity. Dosimetry estimates were created via kinetic modeling of the quantified image data to determine residence times, and the standard MIRD methodology. These estimates were determined using 3 assumptions regarding urinary bladder voiding intervals (2.0, 3.5, and 4.8 hr). Kinetic data, residence times, and the dosimetry estimates are reported for individuals, and as summary statistics.

[4] = 12 healthy volunteers, voiding interval 3.5 hours
[5] = average, voiding interval 3.5 hours

With `CC(C)(C)n1ncc(OCc2ccc(COCC[18F])cc2)c(Cl)c1=O` [imaging agent 1, 2-t-butyl-4-chloro-5-[4-(2-(^18F)fluoroethoxymethyl)-benzyloxy]-2H-pyridazin-3-1] the “QTc, change from baseline after injection” value (“QTc, change from baseline” for short) (control and MI rabbits; Control rabbits (n = 3), 1 min) was 2 ± 15 ms, the “QTc, change from baseline” value (control and MI rabbits; Control rabbits (n = 3), 5 min) was -1 ± 11 ms and the “QTc, change from baseline” value (control and MI rabbits; Control rabbits (n = 3), 10 min) was 6 ± 20 ms. For the same compound, the “QTc, change from baseline” value (control and MI rabbits; Control rabbits (n = 3), 20 min) was 9 ± 15 ms, the “Diastolic AP, change from baseline after injection” value (“Diastolic AP, change from baseline” for short) (control and MI rabbits; Control rabbits, 1 min) was 0 ± 1 mmHg and the “Heart rate, change from baseline after injection” value (from here on “Heart rate, change from baseline”) (control and MI rabbits; Control rabbits, 1 min) was −4 ± 2 beat/min. For the same compound, the “Mean AP, change from baseline after injection” value (“Mean AP, change from baseline” below) (control and MI rabbits; Control rabbits, 1 min) was 0 ± 0 mmHg, the “Systolic AP, change from baseline after injection” value (“Systolic AP, change from baseline” below) (control and MI rabbits; Control rabbits, 1 min) was 0 ± 1 mmHg and the “Diastolic AP, change from baseline” value (control and MI rabbits; Control rabbits, 5 min) was −1 ± 2 mmHg. For the same compound, the “Heart rate, change from baseline” value (control and MI rabbits; Control rabbits, 5 min) was −2 ± 1 beat/min, the “Mean AP, change from baseline” value (control and MI rabbits; Control rabbits, 5 min) was −2 ± 0 mmHg and the “Systolic AP, change from baseline” value (control and MI rabbits; Control rabbits, 5 min) was −2 ± 1 mmHg. The “Diastolic AP, change from baseline” value (control and MI rabbits; Control rabbits, 10 min) was 0 ± 5 mmHg, the “Heart rate, change from baseline” value (control and MI rabbits; Control rabbits, 10 min) was −2 ± 4 beat/min and the “Mean AP, change from baseline” value (control and MI rabbits; Control rabbits, 10 min) was −2 ± 3 mmHg. The “Systolic AP, change from baseline” value (control and MI rabbits; Control rabbits, 10 min) was −1 ± 6 mmHg, the “Diastolic AP, change from baseline” value (control and MI rabbits; Control rabbits, 20 min) was 0 ± 5 mmHg and the “Heart rate, change from baseline” value (control and MI rabbits; Control rabbits, 20 min) was −4 ± 4 beat/min. The “Mean AP, change from baseline” value (control and MI rabbits; Control rabbits, 20 min) was −1 ± 6 mmHg, the “Systolic AP, change from baseline” value (control and MI rabbits; Control rabbits, 20 min) was 0 ± 5 mmHg and the “QTc, change from baseline” value (control and MI rabbits; MI rabbits (n = 4), 1 min) was 8 ± 5 ms. The “QTc, change from baseline” value (control and MI rabbits; MI rabbits (n = 4), 5 min) was 4 ± 6 ms, the “QTc, change from baseline” value (control and MI rabbits; MI rabbits (n = 4), 10 min) was 4 ± 8 ms and the “QTc, change from baseline” value (control and MI rabbits; MI rabbits (n = 4), 20 min) was 3 ± 12 ms. The “Diastolic AP, change from baseline” value (control and MI rabbits; MI rabbits, 1 min) was 1 ± 1 mmHg, the “Heart rate, change from baseline” value (control and MI rabbits; MI rabbits, 1 min) was 6 ± 5 beat/min and the “Mean AP, change from baseline” value (control and MI rabbits; MI rabbits, 1 min) was 2 ± 1 mmHg. For the same compound, the “Systolic AP, change from baseline” value (control and MI rabbits; MI rabbits, 1 min) was 1 ± 2 mmHg, the “Diastolic AP, change from baseline” value (control and MI rabbits; MI rabbits, 5 min) was 2 ± 2 mmHg and the “Heart rate, change from baseline” value (control and MI rabbits; MI rabbits, 5 min) was 3 ± 8 beat/min. The “Mean AP, change from baseline” value (control and MI rabbits; MI rabbits, 5 min) was 2 ± 2 mmHg, the “Systolic AP, change from baseline” value (control and MI rabbits; MI rabbits, 5 min) was 2 ± 2 mmHg and the “Diastolic AP, change from baseline” value (control and MI rabbits; MI rabbits, 10 min) was 1 ± 1 mmHg. For the same compound, the “Heart rate, change from baseline” value (control and MI rabbits; MI rabbits, 10 min) was 1 ± 6 beat/min, the “Mean AP, change from baseline” value (control and MI rabbits; MI rabbits, 10 min) was −1 ± 2 mmHg and the “Systolic AP, change from baseline” value (control and MI rabbits; MI rabbits, 10 min) was 0 ± 1 mmHg. The “Diastolic AP, change from baseline” value (control and MI rabbits; MI rabbits, 20 min) was 2 ± 2 mmHg, the “Heart rate, change from baseline” value (control and MI rabbits; MI rabbits, 20 min) was −7 ± 10 beat/min and the “Mean AP, change from baseline” value (control and MI rabbits; MI rabbits, 20 min) was 2 ± 3 mmHg. For the same compound, the “Systolic AP, change from baseline” value (control and MI rabbits; MI rabbits, 20 min) was 1 ± 7 mmHg, the “effect on MAP, SAP and DAP” value (control and MI rabbits; MI rabbits, during and after administration) was “no alterations of these parameters were observed” and the “effect on ECG waveform, cardiac rhythm, HR and QTc interval” value (control and MI rabbits; control or MI rabbits, 1-, 5-, 10- and 20-minute post iv injection) was “did not alter”. For the same compound, the “effect on MAP, SAP and DAP” value (control and MI rabbits; control rabbits) was “did not induce changes”, the “first pass extraction fraction” value (myocardial blood flow [1]) was 0.94 and the “estimated human radiation dose for the heart wall” value (heart wall) was 0.067 mSv/MBq. The “Diagnostic certainty of interpretation (% of cases with definitely abnormal/normal interpretation)” value ([2]; in vivo) was 92.0%, the “area under the ROC curve for overall diagnosis of CAD” value ([2]; in vivo) was 0.79±0.05 and the “% of images rated as either excellent or good” value ([2]; rest images) was 96.8%. The “% of images rated as either excellent or good” value ([2]; stress images) was 99.2%, the “first pass extraction fraction” value (myocardial blood flow [3]) was 0.94 and the “EDE (effective dose equivalent), Mean” value (healthy volunteers; 12 healthy volunteers) was 8.0E−02 rem/mCi. The “absorbed dose estimate, Mean, Adrenals” value (healthy volunteers; 12 healthy volunteers) was 5.8E−02 rem/mCi, the “absorbed dose estimate, Mean, Brain” value (healthy volunteers; 12 healthy volunteers) was 9.4E−02 rem/mCi and the “absorbed dose estimate, Mean, Breasts” value (healthy volunteers; 12 healthy volunteers) was 3.2E−02 rem/mCi. For the same compound, the “absorbed dose estimate, Mean, Gallbladder Wall” value (healthy volunteers; 12 healthy volunteers) was 6.4E−02 rem/mCi, the “absorbed dose estimate, Mean, LLI Wall” value (healthy volunteers; 12 healthy volunteers) was 4.3E−02 rem/mCi and the “absorbed dose estimate, Mean, Liver” value (healthy volunteers; 12 healthy volunteers) was 1.5E−01 rem/mCi. For the same compound, the “absorbed dose estimate, Mean, Lungs” value (healthy volunteers; 12 healthy volunteers) was 4.2E−02 rem/mCi, the “absorbed dose estimate, Mean, Muscle” value (healthy volunteers; 12 healthy volunteers) was 3.8E−02 rem/mCi and the “absorbed dose estimate, Mean, Osteogenic Cells” value (healthy volunteers; 12 healthy volunteers) was 6.9E−02 rem/mCi. The “absorbed dose estimate, Mean, Ovaries” value (healthy volunteers; 12 healthy volunteers) was 4.5E−02 rem/mCi, the “absorbed dose estimate, Mean, Pancreas” value (healthy volunteers; 12 healthy volunteers) was 5.9E−02 rem/mCi and the “absorbed dose estimate, Mean, Red Marrow” value (healthy volunteers; 12 healthy volunteers) was 6.0E−02 rem/mCi. The “absorbed dose estimate, Mean, Salivary” value (healthy volunteers; 12 healthy volunteers) was 1.3E−01 rem/mCi, the “absorbed dose estimate, Mean, Skin” value (healthy volunteers; 12 healthy volunteers) was 2.9E−02 rem/mCi and the “absorbed dose estimate, Mean, Small Intestine” value (healthy volunteers; 12 healthy volunteers) was 4.7E−02 rem/mCi. For the same compound, the “absorbed dose estimate, Mean, Spleen” value (healthy volunteers; 12 healthy volunteers) was 6.0E−02 rem/mCi, the “absorbed dose estimate, Mean, Stomach Wall” value (healthy volunteers; 12 healthy volunteers) was 1.5E−01 rem/mCi and the “absorbed dose estimate, Mean, Testes” value (healthy volunteers; 12 healthy volunteers) was 3.4E−02 rem/mCi. The “absorbed dose estimate, Mean, Thymus” value (healthy volunteers; 12 healthy volunteers) was 4.1E−02 rem/mCi, the “absorbed dose estimate, Mean, Thyroid” value (healthy volunteers; 12 healthy volunteers) was 1.2E−01 rem/mCi and the “absorbed dose estimate, Mean, Total Body” value (healthy volunteers; 12 healthy volunteers) was 4.5E−02 rem/mCi. The “absorbed dose estimate, Mean, ULI Wall” value (healthy volunteers; 12 healthy volunteers) was 4.7E−02 rem/mCi, the “absorbed dose estimate, Mean, Urinary Bladder Wall” value (healthy volunteers; 12 healthy volunteers) was 8.4E−02 rem/mCi and the “absorbed dose estimate, Mean, Uterus” value (healthy volunteers; 12 healthy volunteers) was 4.6E−02 rem/mCi. The “ED (effective dose), Mean” value (healthy volunteers; [4]) was 0.071 rem/mCi and 7.1E−02 rem/mCi, the “absorbed dose estimate, Mean, Heart Wall” value (healthy volunteers; [4]) was 0.18 rem/mCi and 1.8E−01 rem/mCi and the “absorbed dose estimate, Mean, Kidneys” value (healthy volunteers; [4]) was 0.24 rem/mCi and 2.4E−01 rem/mCi. For the same compound, the “peak uptake, kidneys” value (healthy volunteers; average, 12 healthy volunteers) was “approximately 9.4 % of the injected activity”, the “peak uptake, liver” value (healthy volunteers; average, 12 healthy volunteers) was “approximately 19.1 % of the injected activity” and the “absorbed dose, heart wall” value (healthy volunteers; [5]) was 0.048 mSv/MBq. For the same compound, the “absorbed dose, kidneys” value (healthy volunteers; [5]) was 0.066 mSv/MBq and the “mean ED (effective dose)” value (healthy volunteers; voiding interval 3.5 hours) was 0.019 mSv/MBq.
